From PubChem BioAssay (NCI)
“And” between values parts separate entries of the source, which are not always exact repeats. Equal values may be shown once.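 Each compound was tested at five concentrations against cells in 96-well plates for 48 hours. Here, GI50 denotes the concentration required for 50% inhibition of growth. TGI denotes the concentration required for complete inhibition of growth.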

Columns and labels:
Assay in all cases: NCI tumour cell line growth inhibition, 48 h
[1] = test system: ACHN renal
[2] = test system: CAKI-1 renal
[3] = test system: CCRF-CEM leukemia
[4] = test system: OVCAR-5 ovarian
[5] = test system: SF-268 CNS
[6] = test system: SF-295 CNS
[7] = test system: SK-MEL-5 melanoma
[8] = test system: SN12C renal
[9] = test system: SW-620 colon
[10] = test system: UACC-62 melanoma

Compound: COc1ccc(/C=C2/CCc3cc4ccc(OC)cc4[o+]c32)c(O)c1
- GI50 [1]: 4.15 µM
- TGI [1]: 15.8 µM
- GI50 [2]: 10.7 µM
- TGI [2]: 22.5 µM
- GI50 [3]: 3.88 µM
- TGI [3]: > 100 µM
- GI50 [4]: 17.2 µM
- TGI [4]: 40.3 µM
- GI50 [5]: 2.8 µM
- TGI [5]: 9.83 µM
- GI50 [6]: 16.3 µM
- TGI [6]: 38 µM
- GI50 [7]: 14 µM
- TGI [7]: 41.1 µM
- GI50 [8]: 2.51 µM
- TGI [8]: 7.93 µM
- GI50 [9]: 2.23 µM
- TGI [9]: 5.09 µM
- GI50 [10]: 5.2 µM
- TGI [10]: 19.9 µM

Compound: CCCCCCCCCCN=C(c1ccc(N(C)C)cc1)c1ccc(N(C)C)cc1
- GI50 [1]: 2.47 µM
- TGI [1]: > 73.9 µM
- GI50 [2]: 1.43 µM
- TGI [2]: 64.3 µM
- GI50 [3]: 1.78 µM
- TGI [3]: > 77.3 µM
- GI50 [4]: 7.65 µM
- TGI [4]: > 100 µM
- GI50 [5]: 3.4 µM
- TGI [5]: 67.9 µM
- GI50 [6]: 0.63 µM
- TGI [6]: 13.7 µM
- GI50 [7]: 0.67 µM
- TGI [7]: 18.4 µM
- GI50 [8]: 0.83 µM
- TGI [8]: 53.4 µM
- GI50 [9]: 0.425 µM
- TGI [9]: > 100 µM
- GI50 [10]: 0.508 µM
- TGI [10]: > 38.4 µM

Compound: CC1(C)CC[C@H](C2=CC(=O)c3c(O)ccc(O)c3C2=O)O1
- GI50 [1]: 1.64 µM and 1.27 µM and 0.252 µM
- TGI [1]: 3.45 µM and 2.55 µM and 0.69 µM
- GI50 [2]: 1.11 µM and 1.38 µM and 0.48 µM
- TGI [2]: 2.44 µM and 2.72 µM and 1.17 µM
- GI50 [3]: 0.666 µM and 0.114 µM
- GI50 [4]: 4.43 µM and 2 µM and 1.91 µM
- TGI [4]: 8.24 µM and 3.56 µM and 3.57 µM
- GI50 [5]: 3.54 µM and 2.19 µM and 1.01 µM
- TGI [5]: 10.3 µM and 6.27 µM and 6.67 µM
- GI50 [6]: 8.48 µM and 2.4 µM and 3.24 µM
- TGI [6]: 22.1 µM and 6.73 µM and 8.11 µM
- GI50 [7]: 1.65 µM and 1.36 µM and 0.464 µM
- TGI [7]: 4.08 µM and 2.68 µM and 1.22 µM
- GI50 [8]: 2.6 µM and 1.51 µM and 0.382 µM
- GI50 [9]: 0.66 µM and 0.374 µM and 0.0996 µM
- TGI [9]: 1.67 µM and 1.64 µM and 0.229 µM
- GI50 [10]: 2.36 µM and 1.3 µM and 0.54 µM
- TGI [10]: 5.28 µM and 2.66 µM and 1.53 µM

Compound: Cc1ccccc1Nc1nc2c(s1)C(=O)c1ccccc1C2=O
- TGI [1]: 14.6 µM
- TGI [2]: 30.3 µM
- TGI [3]: > 37.5 µM
- TGI [4]: 38 µM
- TGI [5]: 13 µM
- TGI [6]: 32.9 µM
- TGI [7]: 7.12 µM
- TGI [8]: 6.32 µM
- TGI [9]: 6.65 µM
- TGI [10]: 10.3 µM
